Source: US20070128217A1 (priority 2003, published 2007)

Legend:
[1] = tested on: control sera (pooled serum of ten healthy LUMC hospital workers; commercial negative donor pooled serum from the Dutch bloodbank); type: binding, human; design: Binding of Control serum LUMC to linear peptides / Binding of Control serum Blood-bank to linear peptides / Binding of Control serum LUMC to looped peptides / Binding of Control Serum Blood-Bank to Looped peptides / Binding of Control serum LUMC to linear peptides of the protein M of SARS-CoV Urbani / Binding of Control serum Blood-bank to linear peptides of the protein M of SARS-CoV Urbani / Binding of Control serum LUMC to looped peptides of the protein M of SARS-CoV Urbani / Binding of Control Serum Blood-Bank to Looped peptides of the protein M of SARS-CoV Urbani: unit not given here
[2] = tested on: rabbit serum obtained by immunizing a rabbit with the SARS-CoV strain Frankfurt 1; type: binding; design: Binding of a rabbit serum to linear peptides / Binding of a rabbit serum to looped peptides / Rabbit serum linear peptides / Rabbit serum looped peptides / Binding of a rabbit serum to linear peptides of protein N of SARS-CoV Urbani (Rabbit serum linear peptides) / Binding of a rabbit serum to looped/cyclic peptides of protein N of SARS-CoV Urbani (Rabbit serum looped peptides): unit not given here

YFVCWHTHNYDYCIP
Binding of Control Serum Blood-Bank to Looped peptides [1]: 0.6
Binding of Control serum Blood-bank to linear peptides [1]: 0.6
Binding of Control serum LUMC to linear peptides [1]: 0.7
Binding of Control serum LUMC to looped peptides [1]: 0.6
Binding of a rabbit serum to linear peptides [2]: 0.1
Binding of a rabbit serum to looped peptides [2]: 0.6

YKLGASQRVGTDSGF
Binding of Control Serum Blood-Bank to Looped peptides of the protein M of SARS-CoV Urbani [1]: 0.7
Binding of Control serum Blood-bank to linear peptides of the protein M of SARS-CoV Urbani [1]: 0.7
Binding of Control serum LUMC to linear peptides of the protein M of SARS-CoV Urbani [1]: 0.4
Binding of Control serum LUMC to looped peptides of the protein M of SARS-CoV Urbani [1]: 0.9
Rabbit serum linear peptides [2]: 0.4
Rabbit serum looped peptides [2]: 0.2

YQECVRGTTVLLKEP
Binding of Control Serum Blood-Bank to Looped peptides [1]: 0.9
Binding of Control serum Blood-bank to linear peptides [1]: 0.8
Binding of Control serum LUMC to linear peptides [1]: 0.7
Binding of Control serum LUMC to looped peptides [1]: 0.8
Rabbit serum linear peptides [2]: 0.5
Rabbit serum looped peptides [2]: 0.5

YSEDRHSGVKDYVVV
Binding of Control Serum Blood-Bank to Looped peptides [1]: 0.7
Binding of Control serum Blood-bank to linear peptides [1]: 0.7
Binding of Control serum LUMC to linear peptides [1]: 0.6
Binding of Control serum LUMC to looped peptides [1]: 0.8
Binding of a rabbit serum to linear peptides [2]: 0.1
Binding of a rabbit serum to looped peptides [2]: 0.4

YSELDDEEPMELDYP
Binding of Control Serum Blood-Bank to Looped peptides of the protein X3 of SARS-CoV Urbani [1]: 0.8
Binding of Control serum Blood-bank to linear peptides of the protein X3 of SARS-CoV Urbani [1]: 0.7
Binding of Control serum LUMC to linear peptides of the protein X3 of SARS-CoV Urbani [1]: 0.9
Binding of Control serum LUMC to looped peptides of the protein X3 of SARS-CoV Urbani [1]: 0.8
Rabbit serum linear peptides [2]: 0.3
Rabbit serum looped peptides [2]: 0.3
